Measured values taken from US20140121235A1, “Method for Treating S6K-Overexpressing Cancers” (Rush University Medical Center, priority 2012, published 2014).

What was measured:
[1] = tested on: ERK1/2^T202/Y204 and MEK1/2^S217/S221 phosphorylation; assay: Western blot of MAP kinase pathway phosphorylation in A375 cells; assay type: cell-based; settings: for block of A77 1726-induced ERK1/2 and MEK1/2 phosphorylation: A375 cells pre-treated with inhibitor 1 hr, then A77 1726 100 μM 2 hr; for effect on ERK1/2 and MEK phosphorylation, inhibitor alone: A375 cells, PLX 4720 1 μM, rapamycin 20 nM, PPP 1 μM
Experimental: (§1) A375 cells seeded in a 6-well plate were starved in DMEM medium containing 0.5% FBS for 2 hr and treated with the indicated concentration of A77 1726 or PLX 4720 (1 μM) for another 2 hr (A) or treated with A77 1726 (100 μM) for the indicated time (B & C). Cells were harvested and analyzed for protein phosphorylation by specific antibodies as indicated. Protein loading was monitored by stripping membrane and re-probing with antibodies against non-phosphorylated proteins. […] A375 cells seeded in a 6-well plate were starved in DMEM medium containing 05% FBS for 2 hr and treated with the indicated concentration of A77 1726 in the absence or presence of uridine (200 μM). Phosphorylated and total proteins were analyzed by Western blot as described above.
(§2) A375 cells seeded in 6-well plates were starved in DMEM medium containing 0.5% FBS for 2 hr and then pre-treated with vehicle (0.1% dimethyl sulfoxide), LY294002 (10 μM) (A), PPP (1 μM) (B), or the inhibitors of the MAP kinase pathway (PLX4720, 1 μM; U0126, 10 μM; PD98059, 10 μM) (C) for 1 hr. Cells were then treated with A77 1726 (100 μM) or rapamycin (20 nM) as indicated for 2 hr. Cells were harvested and analyzed for protein phosphorylation by specific antibodies as indicated. Protein loading was monitored by stripping membrane and re-probing with antibodies against non-phosphorylated proteins.
(§3) Cells grown in 6-well plates were harvested and lysed in NP-40 lysis buffer (50 mM Tris-HCI (pH 8.0), 150 mM NaCl, 1% NP-40, 5 mM EDTA, 10 μg/ml aprotinin, 10 μg/ml leupeptin, and 1 mM phenylmethylsulfonyl fluoride). After incubation on ice for 30 min, the cell lysates were prepared by spinning down at 4° C., 15,000 rpm for 15 min. After electrophoresis and transfer to Immobolin membrane, proteins of interest were probed with their specific antibodies, followed by horseradish peroxidase-conjugated goat anti-rabbit IgG and SuperSignal Western Pico enhanced chemiluminoscence substrate (Pierce Chemical Co., Rockford, Ill.).
(§4) The PI-3 and MAP kinase pathways play an important role in cell proliferation, differentiation, and cell cycle progress. Multiple genes in these two pathways are frequently mutated and have a commanding role in driving tumorigenesis and tumor cell proliferation (2; 3). […] Here we tested whether A77 1726 affected the activation of MAP and PI-3 kinase pathways. A375 cells grown in 6-well plates were starved in the media containing 0.5% FBS for 2 hr and then treated with the indicated concentration of A77 1726. […] We next explored the effect of A77 1726 in phosphorylation of the molecules in the PI-3 kinase pathway.

[2] = tested on: AKT^S473 and S6K1^T389 phosphorylation; assay: Western blot of PI-3 kinase pathway phosphorylation in A375 cells; assay type: cell-based; settings: for effect on AKT^S473 phosphorylation in A77 1726-treated cells: A375 cells, MAP kinase pathway inhibitor plus A77 1726
Experimental: as §1, §2, §3, §4

[3] = tested on: A375 cells; assay: Cell cycle analysis (propidium iodine, flow cytometer); assay type: cell-based; settings: for effect on cell cycle, inhibitor alone: PLX4720 1 μM, U0126 10 μM, PD98059 10 μM, rapamycin 20 nM, LY294002 10 μM
Experimental: (A) Ability of uridine to relieve the cell cycle arrest in the S phase. A375 cells grown in 6-well plates were treated with the indicated concentration of A771726 with or without uridine (200 μM) for 24 hr. Cell cycle was analyzed in a flow cytometer as described in Materials and Methods. (B) Effect of the MAP kinase pathway inhibitors on A77 1726-mediated cell cycle arrest in the S phase. A375 cells were treated with A771726 (100 μM) in the absence or presence of 0.1% DMSO, […] (1 μM), U0126 (10 μM), PD98059 (10 for 24 hr. Single cell suspensions were prepared and analyzed for cell cycle in a flow cytometer. (C) Effect of the PI-3 kinase pathway inhibitors and their effect on A77 1726-mediated cell cycle arrest. A375 cells were treated with A77 1726 (100 μM), rapamycin (20 nM), and/or LY294002 (10 μM). After incubation for 24 hr, cells were harvested and analyzed for cell cycle progress.
(§5) Cells were grown in complete RPMI1640 medium with 10% fetal bovine serum in 6-well plates. Upon 60% confluence, the cells were treated with vehicle or with indicated concentrations of A77 1726 or various inhibitors as indicated for 24 hr. Cells were pulsed with 10 μM BrdU for 2 hr. Cells were harvested, denatured with 2N HCl for 5 min at room temperature followed by neutralization with 0.1M borate buffer (pH 8.5). After washing and blocking with normal mouse serum, the cells were stained with an Alexa Fluor 488-conjugated anti-BrdU monoclonal antibody (BD Bioscience), followed by analysis in a flow cytometer. Alexa Fluor 488-conjugated mouse IgG was included as a control. For cell cycle analysis, the cells were harvested and fixed with 2 ml cold 70% ethanol in PBS overnight at 4° C. Fixed cells were then washed 3 times with PBS, treated with RNaseA (100 μg/ml in 0.5 ml PBS). After incubation at room temperature for 30 min, cells were stained with 2.5 μl propidium iodine (10 mg/ml.) and immediately analyzed for DNA content in a flow cytometer.

[4] = tested on: A375 cells; assay: BrdU incorporation (DNA replication), flow cytometry; assay type: cell-based; settings: for block of A77 1726-induced BrdU incorporation / DNA synthesis: A77 1726 100 μM plus inhibitor; for effect on DNA replication (BrdU labeling), inhibitor alone: PLX4720 1 μM, U0126 10 μM, rapamycin 20 nM, LY294002 10 μM
Experimental: (A) The effect of uridine to A77 1726-induced DNA synthesis. A375 cells were treated with the indicated concentration of A771726 in the absence or presence of uridine (200 μM) for 22 hr. After pulsing with BrdU (10 µM) for 2 hr, cells were harvested and analyzed for BrdU incorporation by staining with an Alexa Fluor-488-conjugated anti-BrdU monoclonal antibody followed by flow cytometry. (B) Effect of the MAP kinase pathway inhibitors to A77 1726-stimulated BrdU incorporation. A375 cells were treated with A77 1726 (100 μM) in the presence of 0.1% DMSO, PLX4720 (1 μM), U0126 (10 µM), PD98059 (10 μM). After incubation for 22 hr the cells were pulsed with BrdU for 2 hr. Single cell suspensions were stained for BrdU incorporation and analyzed for cell cycle in a flow cytometer as described in (A). (C) Effect of the PI-3 kinase pathway inhibitors and their effect on A77 1726-stimualted BrdU incorpration. A375 cells were treated with A771726 (100 μM), rapamycin (20 nM), and/or […] (10 μM). After incubation for 22 hr, cells were pulsed with BrdU for 2 hr, harvested and analyzed for BrdU labeling in a flow cytometer.
as §5

[5] = tested on: A375 cells; assay: Cell proliferation assay (ATP-based Cell-Glo)
Experimental: A375 cells were seeded in 96-well plates (2000 cells/well) and incubated the indicated concentrations of A77 1726 for 72 hr in the absence or presence of various concentrations PLX4720 (A, C) with or without uridine (200 μM) (B, D). Cell proliferation was analyzed by an ATP-based Cell-Glo assay. One representative of three experiments with similar results was shown. *p<0.01.
A375 cells were grown in complete RPMI 1640 medium supplemented with 10% fetal bovine serum. The cells were seeded in 96-well plates at the density of 2,000/well in the absence or presence of various concentrations of A77 1726, PLX4720, or uridine (200 μM). After incubation for 72 hr, cell proliferation was monitored by using an ATP-based Cell-Glo assay (Promegan, Madison, Wis.) following the manufacturer's instruction.

[6] = tested on: ribosomal protein S6^S235/S236 phosphorylation; assay: Western blot of S6 phosphorylation in A375 cells; assay type: cell-based; settings: A375 cells; A77 1726 dose-dependent or 100 μM, rapamycin 20 nM, PPP 1 μM
Experimental: as §1, §2, §3, §4

SMILES	block of A77 1726-induced ERK1/2 and MEK1/2 phosphorylation [1]	effect on AKT^S473 phosphorylation in A77 1726-treated cells [2]	effect on cell cycle, inhibitor alone ([3]; A375 cells, 24 hr)	block of A77 1726-induced BrdU incorporation / DNA synthesis [4]	effect on ERK1/2 and MEK phosphorylation, inhibitor alone [1]	effect on DNA replication (BrdU labeling), inhibitor alone [4]	also measured
CNC(=O)c1cc(Oc2ccc(NC(=O)Nc3ccc(Cl)c(C(F)(F)F)c3)cc2)ccn1 [BAY 43-9006]	able to block	further increase	–	–	–	–	–
COc1cccc(-c2cc(=O)c3ccccc3o2)c1N [PD98059]	unable to block	further increase	arrest of the cell cycle in G1 phase	partially blocked	–	–	–
CCCS(=O)(=O)Nc1ccc(F)c(C(=O)c2c[nH]c3ncc(Cl)cc23)c1F [PLX4720]	able to block	further increase	arrest of the cell cycle in G1 phase	able to block	inhibited	completely block DNA replication	effect on A375 cell proliferation ([5]; PLX4720 100 or 500 nM by itself): inhibited; effect on A375 cell proliferation ([5]; PLX4720 at 1 nM by itself): had no effect; effect on A375 cell proliferation in combination with A77 1726 ([5]; in the absence or presence of uridine): additive effect
COc1cc([C@@H]2c3cc4c(cc3[C@H](O)[C@H]3COC(=O)[C@@H]23)OCO4)cc(OC)c1OC [PPP]	abrogated	–	–	–	had no effect	–	effect on S6^S235/S236 phosphorylation [6]: had no effect; block of A77 1726- and rapamycin-induced AKT phosphorylation ([2]; A375 cells pre-treated with LY294002 10 μM or PPP 1 μM): largely blocked
N#CC(=C(/N)Sc1ccccc1N)/C(C#N)=C(\N)Sc1ccccc1N [U0126]	able to block	further increase	arrest of the cell cycle in G1 phase	able to block	–	completely block DNA replication	–
O=c1ccn([C@@H]2O[C@H](CO)[C@@H](O)[C@H]2O)c(=O)[nH]1 [Uridine, uridine]	–	–	–	–	–	–	effect on cell cycle of A77 1726-treated cells ([3]; A375 cells treated with A77 1726 at three concentrations plus uridine): almost normalize cell cycle; effect on cell cycle arrest, uridine alone ([3]; A375 cells, uridine 200 μM, 24 hr): little effect
